Measurements from patent US6468555B1, “Pesticidal compositions” (Sumitomo Chemical Company, Limited, priority 1999, dated 2002).

Assays:
Bemisia argentifolii = assay: Pesticidal test against Bemisia argentifolii first-instar nymphs on cabbage seedlings (foliar spray); type: in vivo; conditions: 16 days after application
Description: Pesticidal Test Against Bemisia argentifolii
Cabbage seedlings infested with first-instar nymphs of Bemisia argentifollii were uniformly sprayed using a spray gun with a water dilution in a prescribed concentration of a commercial product of compound A (trade name: Lano 10EC; available from Sumitomo Chemical Co., Ltd.), a commercial product of compound B (trade name: Baroque Flowable; available from Yashima Chemical Industry Co., Ltd.), or a mixture of the commercial product of compound A and the commercial product of compound B. After air drying, each of the cabbage seedlings was placed in a net cage and kept in a greenhouse. After 16 days from the application, the number of emergent adults was determined.

Aphis gossypii = assay: Pesticidal test against Aphis gossypii on potted cabbage plants (foliar spray); type: in vivo; conditions: 2.0 ppm active ingredient, 20 adults set free per pot; for Number of surviving aphids per pot After 3 days: 3 days after spraying; for Number of surviving aphids per pot After 6 days: 6 days after spraying
Description: Pesticidal Test Against Aphis gossypii
Twenty adults of Aphis gossypii were set free on three-leafed cabbage plants in pots. These plants were uniformly sprayed using a spray gun with a water dilution in a prescribed concentration of a commercial product of compound A (trade name: Lano 10EC; available from Sumitomo Chemical Co., Ltd.), a commercial product of compound B (trade name: Baroque Flowable; available from Yashima Chemical Industry Co., Ltd.), or a mixture of the commercial product of compound A and the commercial product of compound B. After air drying, the pots were placed in a greenhouse. On a predetermined day after the application, the cabbage plants were examined for the number of aphids surviving thereon.

Row | Compound | Number of emergent adults (Bemisia argentifolii; 0.2 ppm, 108 nymphs used) | Number of surviving aphids per pot After 3 days (Aphis gossypii) | Number of surviving aphids per pot After 6 days (Aphis gossypii) | Number of emergent adults (Bemisia argentifolii; 0.4 ppm, 125 nymphs used)
1 | CC(COc1ccc(Oc2ccccc2)cc1)Oc1ccccn1 (stereo not drawn) [Compound A, 4-phenoxyphenyl 2-(2-pyridyloxy)propyl ether] | 13 | 45 | 11 | –
2 | CCOc1cc(C(C)(C)C)ccc1C1COC(c2c(F)cccc2F)=N1 (stereo not drawn) [Compound B, 2-(2,6-difluorophenyl)-4-(2-ethoxy-4-tert-butyl-phenyl)-2-oxazoline] | – | 11 | 25 | 51
